In patent publication US20200268703A1, “MEDICINE FOR TREATING ADVANCED OR RECURRENT CANCER PATIENT BEING NON-RESPONSIVE OR NON-TOLERANT TO STANDARD CHEMOTHERAPY AND INCURABLE AND UNRESECTABLE” (HYOGO COLLEGE OF MEDICINE, priority 2017, published 2020):

Legend:
[1] = test system: advanced or recurrent oral cavity cancer; experiment: Tumor immunity risk index value, OS and disease course in oral cavity cancer patients given propagermanium; type: in vivo, human; conditions: for OS: BSC median 46 days
Procedure: (§1) 30 mg of propagermanium [trade name: SEROCION (registered trademark), produced by SANWA KAGAKU KENKYUSHO CO., LTD.] was administered orally in three divided doses per day after meals to 4 patient cases (PG-1 to PG-4) who were diagnosed as advanced or recurrent oral cavity cancer which is non-responsive or non-tolerant to the standard chemotherapy and incurable and unresectable, a 2 patient cases (PG-5 and PG-6) who were diagnosed as advanced or recurrent gastric cancer which is non-responsive or non-tolerant to the standard chemotherapy [gastric cancer treatment guideline fourth edition (edited by Japan Gastric cancer Association, revised in May 2014)] and incurable and unresectable, and 5 healthy person cases (PG-7 to PG-11). 7.5 mL of peripheral blood of the cancer patients (PG-1 and PG-3: only before administration, PG-5 and PG-6: before administration and only 28th day after a start of administration) and healthy persons (all: only before the administration), were collected by a BD vacutainer blood collection tube at the time before the administration of the propagermanium and on 28th and 56th days after starting the administration. Thereafter, and the peripheral blood was centrifuged (1500 G for 15 minutes) to obtain the peripheral blood mononuclear cells (PBMC). The obtained peripheral blood mononuclear cells were fixed and stained using a T cell surface marker and a mouse IgG anti-human antibody against intracellular keratin. The stained cells were analyzed by flow cytometry using a Spectral Cell Analyzer (SP-6800, manufactured by SONY).
(§2) Regarding the T cells and the cytotoxic T cells, among living cells, CD45 positive and CD3 positive cells are separated to obtain T cells, and among the CD45 positive and CD3 positive cells, CD8 positive and CD4 negative cells are separated to obtain the cytotoxic T cells. The proportion of the cytotoxic T cells in the T cells was calculated.
(§3) In the circulating tumor cells in blood, in order to label the cytokeratin present inside the cells, after using Perm Buffer reagent (#421403, produced by BioLegend), staining was performed using a pankeratin antibody (#4523, produced by Cell Signaling). Since the circulating tumor cells in blood are larger than lymphocytes, when flow cytometry is performed, cells were selected in a wider range than in the selection of normal lymphocytes. After selecting cells negative in staining using Ghost Dye Violet 450 as living cells, pankeratin positive cells were regarded as the circulating tumor cells in blood, and the number of the pankeratin positive cells in 10000 peripheral blood mononuclear cells was calculated.
(§4) The calculated number of the pankeratin positive cells and the proportion of cytotoxic T cells in the T cells is substituted into Expression (1) below.
(§5) Number of pankeratin positive cells (pieces)/Proportion of cytotoxic T cells in T cells (%)/10 (I)
(§6) The disease of each patient was determined by an attending physician based on results of endoscopy, computed tomography (CT) examination, positron emission tomography (PET)-CT examination, magnetic resonance imaging (MRI) examination, X-ray (X-P) examination, and blood biochemistry examination including the major markers.

[2] = test system: human gastric cancer cell line MKN45 (MKN45 KO cells); experiment: Apoptosis-inducing activity by PBMC of oral cavity cancer patient after administration of propagermanium; type: cell-based; conditions: for Increase of apoptosis-inducing activity compared to before starting the administration: time point of 48 hours
Procedure: MKN45 KO cells obtained by fluorescently labeling human gastric cancer cell line MKN45 with Kurabira Orange (1×10^4 cells) were cultured using an RPMI 1640 medium containing 10% FBS in 35 mm dishes (Day 0). On next day (Day 1), the medium was changed to an F12-K medium (2 mL) containing 10% FBS, and in Experimental Example 5, a suspension of peripheral blood mononuclear cells (1×10^6 cells) separated from peripheral blood of the oral cavity cancer patient of PG-4 before the administration of the propagermanium and on 28th and 56th days after the administration in F12-K medium (1 mL) is added to the culture dish. Furthermore, 3 μL of IncuCyte (registered trademark) Caspase-3/7 Green Apoptpsis Reagent (Cat No. 4440, produced by Essen BioScience) was added and cultured. Time-lapse photography was performed every 10 minutes for 48 hours, by using BioStation (produced by Nikon Corporation) (Days 1 to 3). An animation was created from result of photography for 48 hours, and the numbers of viable gastric cancer cells (with orange fluorescence) at and apoptosis-induced gastric cancer cells (with green fluorescence) at the time points of 0, 8, 16, 24, 32, 40, and 48 hours were calculated respectively. When calculating the number of cells, 100 to 150 cells were targeted at time point of 48 hours, and cells of 4 to 5 fields of view were summed at 200 times observation by a microscope at each time point. In addition, at each time point, only cells that adhered to the culture dish and could be continuously observed were targeted for counting, and cells that were slightly out of an imaging field of stratified cells were excluded from counting.
The apoptosis-inducing activity (%) at each time point was calculated by using Expression (II) below.
{Number of apoptosis-induced gastric cancer cells/(Number of viable gastric cancer cells+Number of apoptosis-induced gastric cancer cells)}×100 (II)

[3] = test system: advanced or recurrent gastric cancer; experiment: Tumor immunity risk index value and disease course in gastric cancer patients given propagermanium; type: in vivo, human; conditions: for Disease course / Tumor immunity risk index value: 28th day after starting administration
Procedure: as §1, §2, §3, §4, §5, §6

[4] = patient PG-2 (oral cavity cancer)

Substance: propagermanium
- Evaluation of the administration (effective / ineffective) ([1]; patient PG-1 (oral cavity cancer)): ineffective
- OS ([1]; patient PG-1 (oral cavity cancer), administration discontinued midway): 39 days
- Disease course ([1]; patient PG-1 (oral cavity cancer), from the start of administration): disease got worse
- Evaluation of the administration (effective / ineffective) [1, 4]: effective
- Disease course ([1]; patient PG-2 (oral cavity cancer), 28th day after starting administration): disease was controlled
- Tumor immunity risk index value ([1]; patient PG-2 (oral cavity cancer), 28th day after starting administration, before 0.27): 1.70
- Tumor immunity risk index value ([1]; patient PG-2 (oral cavity cancer), 56th day after starting administration, before 0.27): 4.93
- OS [1, 4]: 105 days
- Evaluation of the administration (effective / ineffective) ([1]; patient PG-3 (oral cavity cancer)): ineffective
- OS ([1]; patient PG-3 (oral cavity cancer), administration discontinued midway): 36 days
- Disease course ([1]; patient PG-3 (oral cavity cancer), from the start of administration): disease got worse
- Evaluation of the administration (effective / ineffective) ([1]; patient PG-4 (oral cavity cancer)): effective
- Disease course ([1]; patient PG-4 (oral cavity cancer), 28th and 56th days after starting administration): disease was controlled at any time point
- Tumor immunity risk index value ([1]; patient PG-4 (oral cavity cancer), 28th day after starting administration, before 2.07): 0.49
- Tumor immunity risk index value ([1]; patient PG-4 (oral cavity cancer), 56th day after starting administration, before 2.07): 1.77
- OS ([1]; patient PG-4 (oral cavity cancer), counted before the chemotherapy intervention): 85 days
- Increase of apoptosis-inducing activity compared to before starting the administration ([2]; 28th day after starting administration): approximately 3.1 times
- Increase of apoptosis-inducing activity compared to before starting the administration ([2]; 56th day after starting administration): approximately 3.7 times
- Apoptosis-inducing activity ([2]; PBMC of patient PG-4, 28th day after starting administration, culture for 0 hours): 0.00%
- Apoptosis-inducing activity ([2]; PBMC of patient PG-4, 28th day after starting administration, culture for 48 hours, before administration 4.00): 12.50%
- Apoptosis-inducing activity ([2]; PBMC of patient PG-4, 56th day after starting administration, culture for 0 hours): 0.00%
- Apoptosis-inducing activity ([2]; PBMC of patient PG-4, 56th day after starting administration, culture for 48 hours, before administration 4.00): 14.60%
- Evaluation of the administration (effective / ineffective) ([3]; patient PG-5 (gastric cancer)): ineffective
- Disease course ([3]; patient PG-5 (gastric cancer)): disease progressed
- Tumor immunity risk index value ([3]; patient PG-5 (gastric cancer), before 5.04): 9.55
- Evaluation of the administration (effective / ineffective) ([3]; patient PG-6 (gastric cancer)): effective
- Disease course ([3]; patient PG-6 (gastric cancer)): disease was controlled
- Tumor immunity risk index value ([3]; patient PG-6 (gastric cancer), before 41.12): 0.31
